Data taken from publication PMC7177897, “Benzylaminoethyureido-Tailed Benzenesulfonamides: Design, Synthesis, Kinetic and X-ray Investigations on Human Carbonic Anhydrases” (International Journal of Molecular Sciences, 2020).

How the values were obtained:
hCA IX = target: T1, hCA IX (Homo sapiens, UniProt Q16790); test: stopped-flow CO2 hydration assay; type: biochemical
T1 construct: gene CA9; recombinant, made by the authors as in earlier publications
Description: stopped-flow CO2 hydration assay on hCA IX

hCA XII = target: T2, hCA XII (Homo sapiens, UniProt O43570); test: stopped-flow CO2 hydration assay; type: biochemical
T2 construct: gene CA12; recombinant, made by the authors as in earlier publications
Description: stopped-flow CO2 hydration assay on hCA XII

hCA II = target: T3, hCA II (Homo sapiens, UniProt P00918); test: stopped-flow CO2 hydration assay; type: biochemical
T3 construct: gene CA2; recombinant, made by the authors as in earlier publications; cytosolic isoform
Description: stopped-flow CO2 hydration assay on hCA II

hCA I = target: T4, hCA I (Homo sapiens, UniProt P00915); test: stopped-flow CO2 hydration assay; type: biochemical
T4 construct: gene CA1; crystals from hCA I purchased from Sigma-Aldrich, residues 4-260 visible, two monomers per asymmetric unit
Description: stopped-flow CO2 hydration assay on hCA I

[1] = stopped-flow CO2 hydration assay; type: biochemical, Homo sapiens; settings: read-out: hCA I

T2 sequence (O43570 25-354 limits assumed): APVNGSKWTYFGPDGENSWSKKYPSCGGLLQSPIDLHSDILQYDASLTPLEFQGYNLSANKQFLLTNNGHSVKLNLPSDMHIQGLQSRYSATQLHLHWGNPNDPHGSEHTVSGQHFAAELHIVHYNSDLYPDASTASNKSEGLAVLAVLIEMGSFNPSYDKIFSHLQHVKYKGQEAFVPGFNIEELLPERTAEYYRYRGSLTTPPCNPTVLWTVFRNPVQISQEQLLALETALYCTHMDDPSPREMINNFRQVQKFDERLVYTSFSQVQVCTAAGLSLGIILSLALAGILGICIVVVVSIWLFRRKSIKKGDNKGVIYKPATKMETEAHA
T4 sequence (P00915 2-261): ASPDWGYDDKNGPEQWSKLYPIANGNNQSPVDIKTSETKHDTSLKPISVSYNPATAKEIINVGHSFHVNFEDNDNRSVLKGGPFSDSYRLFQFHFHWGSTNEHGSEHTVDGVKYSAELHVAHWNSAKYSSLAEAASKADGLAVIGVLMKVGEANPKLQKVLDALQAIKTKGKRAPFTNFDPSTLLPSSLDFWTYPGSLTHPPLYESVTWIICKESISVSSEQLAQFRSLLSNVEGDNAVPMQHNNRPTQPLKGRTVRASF

| Ki (hCA IX) [nM] | Ki (hCA XII) [nM] | Ki (hCA II) [nM] | Ki (hCA I) [nM] | Ki [1] [nM] | Structure (SMILES) |
| --- | --- | --- | --- | --- | --- |
| 1350 | 54.5 | 350 | 552 | – | NS(=O)(=O)c1ccc(NC(=O)NCCNCc2ccccc2)cc1 [compound 16, 4-(3-(2-(benzylamino)ethyl)ureido) benzenesulfonamide] |
| 458 | 32 | 127 | 582 | – | NS(=O)(=O)c1ccc(NC(=O)NCCNCc2ccc(Cl)cc2)cc1 [compound 17, 4-(3-(2-((4-chlorobenzyl)amino)ethyl)ureido) benzenesulfonamide] |
| 30.1 | 53.2 | 9.2 | 725 | – | NS(=O)(=O)c1ccc(NC(=O)NCCNCc2ccc(F)cc2)cc1 [compound 18, 4-(3-(2-((4-fluorobenzyl)amino)ethyl)ureido) benzenesulfonamide] |
| 20.3 | 58.3 | 3.9 | 24.6 | – | NS(=O)(=O)c1ccc(NC(=O)NCCNCc2ccccc2F)cc1 [compound 19, 4-(3-(2-((2-fluorobenzyl)amino)ethyl)ureido) benzenesulfonamide] |
| 974 | 75.8 | 267 | 781 | – | NS(=O)(=O)c1ccc(NC(=O)NCCNCc2ccc(O)cc2)cc1 [compound 20, 4-(3-(2-((4-hydroxybenzyl)amino)ethyl)ureido) benzenesulfonamide] |
| 317 | 77.5 | 96.1 | 527 | – | NS(=O)(=O)c1ccc(NC(=O)NCCNCc2ccc([N+](=O)[O-])cc2)cc1 [compound 21, 4-(3-(2-((4-nitrobenzyl)amino)ethyl)ureido) benzenesulfonamide] |
| 343 | 264 | 73.2 | 1510 | – | CN(C)c1ccc(CNCCNC(=O)Nc2ccc(S(N)(=O)=O)cc2)cc1 [compound 22, 4-(3-(2-((4-(dimethylamino)benzyl)amino)ethyl)ureido) benzenesulfonamide] |
| 291 | 53.6 | 82.4 | 788 | – | COc1cc([N+](=O)[O-])ccc1CNCCNC(=O)Nc1ccc(S(N)(=O)=O)cc1 [compound 23, 4-(3-(2-((2-methoxy-4-nitrobenzyl)amino)ethyl)ureido)benzenesulfonamide] |
| 116 | 97.6 | 5.3 | 138 | – | NS(=O)(=O)c1ccc(NC(=O)NCCNCc2ccc(Br)cc2O)cc1 [compound 24, 4-(3-(2-((4-bromo-2-hydroxybenzyl)amino)ethyl)ureido) benzenesulfonamide] |
| 1150 | 63.7 | 63.2 | 782 | – | NS(=O)(=O)c1ccc(NC(=O)NCCNCc2ccc(-c3ccccc3)cc2)cc1 [compound 25, 4-(3-(2-(([1,1′-biphenyl]-4-ylmethyl)amino)ethyl)ureido) benzenesulfonamide] |
| > 10000 | 772 | 76.3 | 928 | – | NS(=O)(=O)c1cccc(NC(=O)NCCNCc2ccccc2)c1 [compound 26, 3-(3-(2-(benzylamino)ethyl)ureido)benzenesulfonamide] |
| 3380 | 228 | 36.9 | 702 | – | NS(=O)(=O)c1cccc(NC(=O)NCCNCc2ccc(Cl)cc2)c1 [compound 27, 3-(3-(2-((4-chlorobenzyl)amino)ethyl)ureido) benzenesulfonamide] |
| 4210 | 71.3 | 53.8 | 868 | – | NS(=O)(=O)c1cccc(NC(=O)NCCNCc2ccc(F)cc2)c1 [compound 28, 3-(3-(2-((4-fluorobenzyl)amino)ethyl)ureido) benzenesulfonamide] |
| > 10000 | 479 | 33.4 | 728 | – | NS(=O)(=O)c1cccc(NC(=O)NCCNCc2ccccc2F)c1 [compound 29, 3-(3-(2-((2-fluorobenzyl)amino)ethyl)ureido) benzenesulfonamide] |
| 3510 | 317 | 166 | 6250 | – | NS(=O)(=O)c1cccc(NC(=O)NCCNCc2ccc(O)cc2)c1 [compound 30, 3-(3-(2-((4-hydroxybenzyl)amino)ethyl)ureido) benzenesulfonamide] |
| 2320 | 60.7 | 168 | 5850 | – | NS(=O)(=O)c1cccc(NC(=O)NCCNCc2ccc([N+](=O)[O-])cc2)c1 [compound 31, 3-(3-(2-((4-nitrobenzyl)amino)ethyl)ureido) benzenesulfonamide] |
| 1200 | 78 | 565 | 8910 | – | CN(C)c1ccc(CNCCNC(=O)Nc2cccc(S(N)(=O)=O)c2)cc1 [compound 32, 3-(3-(2-((4-(dimethylamino)benzyl)amino)ethyl)ureido) benzenesulfonamide] |
| 2610 | 53.1 | 90.2 | > 10000 | – | COc1cc([N+](=O)[O-])ccc1CNCCNC(=O)Nc1cccc(S(N)(=O)=O)c1 [compound 33, 3-(3-(2-((2-methoxy-4-nitrobenzyl)amino)ethyl)ureido)benzenesulfonamide] |
| 1920 | 7.2 | 2.8 | 654 | – | NS(=O)(=O)c1cccc(NC(=O)NCCNCc2ccc(Br)cc2O)c1 [compound 34, 3-(3-(2-((4-bromo-2-hydroxybenzyl)amino)ethyl)ureido) benzenesulfonamide] |
| – | 688 | 456 | > 10000 | > 10000 | NS(=O)(=O)c1cccc(NC(=O)NCCNCc2ccc(-c3ccccc3)cc2)c1 [compound 35, 3-(3-(2-(([1,1’-biphenyl]-4-ylmethyl)amino)ethyl)ureido) benzenesulfonamide] |
